The record followed here is BindingDB's records for doi:10.1016/j.bmc.2018.11.002 (2018).

The nature of assay [1]: Inhibition of mouse GAT3 expressed in HEK293 cells assessed as reduction in [3H]GABA uptake preincubated for 25 mins followed by [3H]GABA addition and measured after 4 mins by liquid scintillation counting method.
The nature of assay [2]: Inhibition of mouse GAT2 expressed in HEK293 cells assessed as reduction in [3H]GABA uptake preincubated for 25 mins followed by [3H]GABA addition and measured after 4 mins by liquid scintillation counting method.

Turning to `COc1ccc(C(/C=C/CN2CCCC(C(=O)O)C2)(c2ccc(OC)cc2)c2ccc3c(c2)OCO3)cc1` (stereo not given), the IC50 in assay [1] turned out to be 10.2 µM.
Consider `COc1ccc(C(C/C=C/CN2CCCC(C(=O)O)C2)(c2ccc(OC)cc2)c2ccc(OC)cc2)cc1` (stereo not given), for which the IC50 in assay [1] was 85.1 µM.
With `COc1ccc(C(/C=C/CN2CCCC(C(=O)O)C2)(c2ccc(OC)cc2)c2ccsc2)cc1` (stereo not given), the IC50 in assay [1] came out at 42.7 µM.
Turning to `COc1ccc(C(/C=C/CN2CCCC(C(=O)O)C2)(c2ccc(OC)cc2)c2ccc3sccc3c2)cc1` (stereo not given), the IC50 in assay [2] turned out to be 25.1 µM; in assay [1] it was 20 µM.
Regarding `COc1ccc(C(/C=C/CN2CCC[C@H](C(=O)O)C2)(c2ccc(OC)cc2)c2ccc3sccc3c2)cc1`, in assay [2], the half-maximal inhibitory concentration (IC50) was determined as 23.4 µM.
With `O=C(O)C1CCCN(C/C=C/C(c2ccc3occc3c2)(c2ccc3occc3c2)c2ccc3occc3c2)C1` (stereo not given), the results for the 50% inhibitory concentration (IC50) in assay [2] and in assay [1] were 9.55 µM and 5.5 µM, respectively.
Consider `O=C(O)C1CCCN(C/C=C/C(c2ccc3c(c2)OCO3)(c2ccc3c(c2)OCO3)c2ccc3c(c2)OCO3)C1` (stereo not given), for which the IC50 in assay [2] amounted to 89.1 µM; in assay [1] it was 24.5 µM.
As for `O=C(O)C1CCCN(C/C=C/C(c2ccc3sccc3c2)(c2ccc3sccc3c2)c2ccc3sccc3c2)C1` (stereo not given), the IC50 in assay [2] was found to be 33.9 µM; in assay [1] it was 52.5 µM.
As for `COc1ccc(C(/C=C/CN2CCCC(C(=O)O)C2)c2ccc(OC)cc2)cc1` (stereo not given), the 50% inhibitory concentration (IC50) in assay [1] was 53.7 µM.
As to `Cc1ccc(C(/C=C/CN2CCCC(C(=O)O)C2)(c2ccc(C)cc2)c2ccc(C)cc2)cc1` (stereo not given), the IC50 in assay [2] came to 14.1 µM; in assay [1] it was 15.8 µM.

In general, IC50 refers to the midpoint of a concentration-inhibition curve.
